Like-named read-outs stand apart in the source and are kept apart here. Where a SMILES comes first, the peptide text is derived from it. Bridges are numbered along the chain shown (N, C = ends). [ ]: non-standard residue; d: D form. The star is where a group is joined. hPhe(3-Cl-4-CF3) = N[C@@H](CCc1ccc(C(F)(F)F)c(Cl)c1)C(=O)O; NPrPhe(4-CF3) = CCCN[C@@H](Cc1ccc(C(F)(F)F)cc1)C(=O)O; NMeGly(cPent) = CN[C@H](C(=O)O)C1CCCC1; NMeL = CN[C@@H](CC(C)C)C(=O)O; Morpholide = C1CN(*)CCO1; Ac5c = NC1(C(=O)O)CCCC1; Aze = O=C(O)[C@@H]1CCN1; Ac4c = NC1(C(=O)O)CCC1; Sar = CNCC(=O)O
How the values were obtained:
[1] = biological target: GDP-bound NRAS wild-type protein (Homo sapiens, UniProt P01111); assay: Binding to NRAS by surface plasmon resonance (SPR), KD and KD ratio to KRAS
In short: (§1)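 Each cycle, GDP-bound biotin-Avi RAS was captured (~100–300 RU), compound concentrations were injected low to high for 75 s each at 100 µL/min, then the chip was regenerated. Buffer: HBS pH 7.4, 10 mM MgCl2, 10 µM GDP, 1 mM DTT, 4% DMSO; 30°C. KD from a 1:1 binding model.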

[2] = system: human lung cancer strain NCI-H441; format: cell-based
In short: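 Signal came from […] measured per well once the reagent was added. Beforehand, cells were cultured at 37°C and 5% carbon dioxide on a compound series serially diluted in dimethyl sulfoxide.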

HRAS wild-type protein = HRAS wild-type protein (Homo sapiens, UniProt P01112); assay: Binding to HRAS by surface plasmon resonance (SPR), KD and KD ratio to KRAS
In short: as §1

[3] = ratio of KD for GDP-bound NRAS wild-type protein to KD for KRAS
[4] = ratio of KD for HRAS wild-type protein to KD for KRAS
[5] = ratio of KD value for GDP-bound NRAS wild-type protein to KD value for KRAS (SPR)
[6] = ratio of KD value for HRAS wild-type protein to KD value for KRAS (SPR)
[7] = ratio of the KD value with respect to GDP-bound NRAS wild-type protein to the KD value with respect to KRAS
[8] = ratio of the KD value with respect to HRAS wild-type protein to the KD value with respect to KRAS

HRAS wild-type protein, sequence (P01112 whole entry): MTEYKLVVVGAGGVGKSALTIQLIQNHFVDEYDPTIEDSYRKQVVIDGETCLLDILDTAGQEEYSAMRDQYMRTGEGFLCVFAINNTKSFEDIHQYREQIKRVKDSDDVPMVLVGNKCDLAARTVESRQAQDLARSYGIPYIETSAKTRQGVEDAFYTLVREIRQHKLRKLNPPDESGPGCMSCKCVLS
GDP-bound NRAS wild-type protein, sequence (P01111 whole entry): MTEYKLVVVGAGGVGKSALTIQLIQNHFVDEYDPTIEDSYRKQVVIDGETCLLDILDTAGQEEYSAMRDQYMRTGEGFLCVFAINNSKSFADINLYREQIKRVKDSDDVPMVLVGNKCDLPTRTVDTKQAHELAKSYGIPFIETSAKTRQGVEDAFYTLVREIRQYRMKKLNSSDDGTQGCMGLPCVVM

CCO[C@@H]1C[C@H]2C(=O)NC3(CCCC3)C(=O)N(C)[C@@H](C3CCCC3)C(=O)N(C)[C@H](C(=O)N(C)C)CC(=O)N(C)[C@@H](CC)C(=O)N[C@@H]([C@@H](C)CC)C(=O)N(C)CC(=O)N(C)[C@H]3CC(C)=CCN(C3=O)[C@@H](Cc3ccc(C(F)(F)F)cc3)C(=O)N(C)CC(=O)N[C@@H](CCc3cc(F)c(C(F)(F)F)c(F)c3)C(=O)N2C1 [PP1036]
NRAS /KRAS [1, 3]: C (A compound having a KD ratio of 0.1 or more and less than 3 is denoted as C) | IC50 [2]: 150 nM | HRAS /KRAS (HRAS wild-type protein; [4]): C (A compound having a KD ratio of 0.1 or more and less than 3 is denoted as C)

CCCN1C(=O)CN(C)C(=O)[C@@H]2CCN2C(=O)[C@H]([C@@H](C)CC)NC(=O)[C@H](CC(C)C)N(C)C(=O)C[C@@H](C(=O)N(C)C)NC(=O)[C@H](C2CCCC2)N(C)C(=O)C2(CCC2)NC(=O)[C@@H]2CCCN2C(=O)[C@H](CCc2ccc(C(F)(F)F)c(Cl)c2)NC(=O)CN(C)C(=O)[C@@H]1Cc1ccc(C(F)(F)F)cc1 [PP0374] ([NMeL]I[Aze][Sar][NPrPhe(4-CF3)][Sar][hPhe(3-Cl-4-CF3)]P[Ac4c][NMeGly(cPent)]D-NMe2; lactam N-11)
NRAS /KRAS [1, 3]: B (a compound having 3 or more and less than 10 is denoted as B) | IC50 [2]: 142 nM | HRAS /KRAS (HRAS wild-type protein; [4]): B (a compound having 3 or more and less than 10 is denoted as B)

CCCN1C(=O)CN(C)C(=O)CN(C)C(=O)[C@H]([C@@H](C)CC)NC(=O)[C@H](CC(C)C)N(C)C(=O)C[C@@H](C(=O)N2CCOCC2)NC(=O)[C@H](C2CCCC2)N(C)C(=O)C2(CCCC2)NC(=O)[C@@H]2CCCN2C(=O)[C@H](CCc2ccc(C(F)(F)F)c(Cl)c2)NC(=O)CN(C)C(=O)[C@@H]1Cc1ccc(C(F)(F)F)cc1 [PP0146] ([NMeL]I[Sar][Sar][NPrPhe(4-CF3)][Sar][hPhe(3-Cl-4-CF3)]P[Ac5c][NMeGly(cPent)]D-Morpholide; lactam N-11)
NRAS /KRAS [1, 3]: B (a compound having 3 or more and less than 10 is denoted as B) | IC50 [2]: 23.9 nM | HRAS /KRAS (HRAS wild-type protein; [4]): B (a compound having 3 or more and less than 10 is denoted as B)

CCO[C@@H]1C[C@H]2C(=O)NC3(CCC3)C(=O)N(C)[C@@H](C3CCCC3)C(=O)N(C)[C@H](C(=O)N(C)C)CC(=O)N(C)[C@@H](Cc3cccc(C)c3)C(=O)N[C@@H]([C@@H](C)CC)C(=O)N(C)CC(=O)N(C)[C@H]3CCCCCN(C3=O)[C@@H](Cc3ccc(C(F)(F)F)cc3)C(=O)N(C)CC(=O)N[C@@H](CCc3cc(F)c(C(F)(F)F)c(F)c3)C(=O)N2C1 [PP0942]
NRAS /KRAS [1, 3]: B (a compound having 3 or more and less than 10 is denoted as B) | IC50 [2]: 66.1 nM | HRAS /KRAS (HRAS wild-type protein; [4]): B (a compound having 3 or more and less than 10 is denoted as B)

CC[C@H](C)[C@@H]1NC(=O)[C@@H]2CCC/C=C/c3ccc(cc3)C[C@@H](C(=O)N(C)CC(=O)N[C@@H](CCc3ccc(Cl)c(Cl)c3)C(=O)N3C[C@H](OC4CCC4)C[C@H]3C(=O)NC3(CC(C)(C)C3)C(=O)N(C)[C@@H](C3CCCC3)C(=O)N(C)[C@H](C(=O)N3CCCC3)CC(=O)N2C)N2CC/C=C\C[C@@H](C2=O)N(C)C(=O)CN(C)C1=O [PP3053]
NRAS /KRAS [1, 3]: A (a compound having 10 or more and less than 20 is denoted as A) | IC50 [2]: 27 nM | HRAS /KRAS (HRAS wild-type protein; [4]): A (a compound having 10 or more and less than 20 is denoted as A)

CCCC[C@H]1C(=O)N[C@@H]([C@@H](C)CC)C(=O)N(C)CC(=O)N(C)[C@H]2C/C=C\CCN(C2=O)[C@@H](Cc2ccc(C(F)(F)F)cc2)C(=O)N(C)CC(=O)N[C@@H](CCc2cc(F)c(C(F)(F)F)c(F)c2)C(=O)N2CC(F)(F)C[C@H]2C(=O)NC2(CC(C)(C)C2)C(=O)N(C)[C@@H](C2CCCC2)C(=O)N(C)[C@H](C(=O)N(C)C)CC(=O)N1C [PP1714]
NRAS /KRAS [1, 5]: A (a compound having 10 or more and less than 20 is denoted as A) | IC50 [2]: 4.3 nM | HRAS /KRAS (HRAS wild-type protein; [6]): A (a compound having 10 or more and less than 20 is denoted as A)

CCO[C@@H]1C[C@H]2C(=O)NC3(CCC3)C(=O)N(C)[C@@H](C(CC)CC)C(=O)N(C)[C@H](C(=O)N3CCCCC3)CC(=O)N(C)[C@H]3CCCCC/C=C/c4ccc(cc4)C[C@@H](C(=O)N(C)CC(=O)N[C@@H](CCc4ccc(Cl)c(Cl)c4)C(=O)N2C1)N1CC/C=C\C[C@@H](C1=O)N(C)C(=O)CN(C)C(=O)[C@H]([C@@H](C)CC)NC3=O [PP3051]
NRAS /KRAS [1, 3]: AA (a compound having 20 or more is denoted as AA) | IC50 [2]: 42.1 nM | HRAS /KRAS (HRAS wild-type protein; [4]): A (a compound having 10 or more and less than 20 is denoted as A)

CCO[C@@H]1C[C@H]2C(=O)NC3(CCC3)C(=O)N(C)[C@@H](C3CCCC3)C(=O)N(C)[C@H](C(=O)N(C)C)CC(=O)N(C)[C@@H](CC(C)(C)C)C(=O)N[C@@H]([C@@H](C)CC)C(=O)N(C)CC(=O)N(C)[C@H]3CCCCN(C3=O)[C@@H](Cc3ccc(C(F)(F)F)cc3)C(=O)N(C)CC(=O)N[C@@H](CCc3cc(F)c(C(F)(F)F)c(F)c3)C(=O)N2C1 [PP0699]
NRAS /KRAS [1, 7]: C (A compound having a KD ratio of 0.1 or more and less than 3 is denoted as C) | IC50 [2]: 2.9 nM | HRAS /KRAS (HRAS wild-type protein; [8]): C (A compound having a KD ratio of 0.1 or more and less than 3 is denoted as C)

CCCN(C)C(=O)[C@@H]1CC(=O)N(C)[C@@H](CC)C(=O)N[C@@H]([C@@H](C)CC)C(=O)N(C)CC(=O)N(C)[C@H]2C/C=C\CCN(C2=O)[C@@H](Cc2ccc(C(F)(F)F)cc2)C(=O)N(C)CC(=O)N[C@@H](CCc2cc(F)c(C(F)(F)F)c(F)c2)C(=O)N2C[C@H](OCC3CC3)C[C@H]2C(=O)NC2(CCC2)C(=O)N(C)[C@@H](C2CCCC2)C(=O)N1C [PP2913]
NRAS /KRAS [1, 3]: A (a compound having 10 or more and less than 20 is denoted as A) | IC50 [2]: 10.3 nM | HRAS /KRAS (HRAS wild-type protein; [4]): A (a compound having 10 or more and less than 20 is denoted as A)

CCCCO[C@@H]1C[C@H]2C(=O)NC3(CCC3)C(=O)N(C)[C@@H](C3CCCC3)C(=O)N(C)[C@H](C(=O)N3CCOCC3)CC(=O)N(C)[C@@H](CC(C)C)C(=O)N[C@@H]([C@@H](C)CC)C(=O)N(C)CC(=O)N(C)[C@H]3CCCCCN(C3=O)[C@@H](Cc3ccc(C(F)(F)F)cc3)C(=O)N(C)CC(=O)N[C@@H](CCc3cc(F)c(C(F)(F)F)c(F)c3)C(=O)N2C1 [PP1004]
NRAS /KRAS [1, 3]: B (a compound having 3 or more and less than 10 is denoted as B) | IC50 [2]: 255 nM | HRAS /KRAS (HRAS wild-type protein; [4]): B (a compound having 3 or more and less than 10 is denoted as B)

CCO[C@@H]1C[C@H]2C(=O)NC3(CC(C)(C)C3)C(=O)N(C)[C@@H](C3CCCC3)C(=O)N(C)[C@H](C(=O)N(C)CC)CC(=O)N(C)[C@@H](COC)C(=O)N[C@@H]([C@@H](C)CC)C(=O)N(C)CC(=O)N(C)[C@H]3C/C=C\CCN(C3=O)[C@@H](Cc3ccc(C(F)(F)F)cc3)C(=O)N(C)CC(=O)N[C@@H](CCc3ccc(C(F)(F)F)c(OC)c3)C(=O)N2C1 [PP1679]
NRAS /KRAS [1, 5]: A (a compound having 10 or more and less than 20 is denoted as A) | IC50 [2]: 3.1 nM | HRAS /KRAS (HRAS wild-type protein; [6]): A (a compound having 10 or more and less than 20 is denoted as A)

CC[C@H](C)[C@@H]1NC(=O)[C@@H]2CCC/C=C/c3ccc(cc3)C[C@@H](C(=O)N(C)CC(=O)N[C@@H](CCc3ccc(Cl)c(Cl)c3)C(=O)N3C[C@H](OC4CCCC4)C[C@H]3C(=O)NC3(CC(C)(C)C3)C(=O)N(C)[C@@H](C3CCCC3)C(=O)N(C)[C@H](C(=O)N3CCCC3)CC(=O)N2C)N2CC/C=C\C[C@@H](C2=O)N(C)C(=O)CN(C)C1=O [PP3054]
NRAS /KRAS [1, 3]: A (a compound having 10 or more and less than 20 is denoted as A) | IC50 [2]: 38.4 nM | HRAS /KRAS (HRAS wild-type protein; [4]): A (a compound having 10 or more and less than 20 is denoted as A)

CC[C@H](C)[C@@H]1NC(=O)[C@H](COC)N(C)C(=O)C[C@@H](C(=O)N2CCOCC2)N(C)C(=O)[C@H](C2CCCC2)N(C)C(=O)C2(CCC2)NC(=O)[C@@H]2CC(F)(F)CN2C(=O)[C@H](CCc2cc(F)c(C(F)(F)F)c(F)c2)NC(=O)CN(C)C(=O)[C@H](Cc2ccc(C(F)(F)F)cc2)N2CCCCC[C@@H](C2=O)N(C)C(=O)CNC1=O [PP0861]
NRAS /KRAS [1, 3]: B (a compound having 3 or more and less than 10 is denoted as B) | IC50 [2]: 20.7 nM | HRAS /KRAS (HRAS wild-type protein; [4]): B (a compound having 3 or more and less than 10 is denoted as B)

CCO[C@@H]1C[C@H]2C(=O)NC3(CCC3)C(=O)N(C)[C@@H](C3CCCC3)C(=O)N(CCC3CCCC3)[C@H](C(=O)N(C)C)CC(=O)N(C)[C@@H](CC)C(=O)N[C@@H]([C@@H](C)CC)C(=O)N(C)CC(=O)N(C)[C@H]3CCCCCN(C3=O)[C@@H](Cc3ccc(C(F)(F)F)cc3)C(=O)N(C)CC(=O)N[C@@H](CCc3cc(F)c(C(F)(F)F)c(F)c3)C(=O)N2C1 [PP0636]
NRAS /KRAS [1, 7]: A (a compound having 10 or more and less than 20 is denoted as A) | IC50 [2]: 729 nM | HRAS /KRAS (HRAS wild-type protein; [8]): A (a compound having 10 or more and less than 20 is denoted as A)

CCC[C@H]1C(=O)N[C@@H]([C@@H](C)CC)C(=O)N(C)CC(=O)N(C)[C@H]2C/C=C\CCN(C2=O)[C@@H](Cc2ccc(C(F)(F)F)cc2)C(=O)N(C)CC(=O)N[C@@H](CCc2cc(F)c(CC)c(OC)c2)C(=O)N2C[C@H](OCC)C[C@H]2C(=O)NC2(CC(C)(C)C2)C(=O)N(C)[C@@H](C2CCCC2)C(=O)N(C)[C@H](C(=O)N(C)C)CC(=O)N1C [PP2862]
NRAS /KRAS [1, 3]: A (a compound having 10 or more and less than 20 is denoted as A) | IC50 ([2]; NCI-H441 cells, 4 days, CellTiter-Glo, read-out: NCl-H441 IC50): 36.3 nM | HRAS /KRAS (HRAS wild-type protein; [4]): B (a compound having 3 or more and less than 10 is denoted as B)

Source: patent EP4603105A1, “PHARMACEUTICAL COMPOSITION CONTAINING CYCLIC COMPOUND HAVING SELECTIVE KRAS INHIBITORY EFFECT AGAINST HRAS AND NRAS” (CHUGAI SEIYAKU KABUSHIKI KAISHA, priority 2022, dated 2024)
